Measured values: PubChem BioAssay (NCI)
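Five concentrations, 48 hours, 96-well plates. TGI is the concentration that stops growth completely.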

Legend:
Experiment in all cases: growth of human tumour cells (NCI), 48 h
MOLT-4 leukemia = test system: MOLT-4 leukemia
SF-539 CNS = test system: SF-539 CNS
NCI-H522 lung = test system: NCI-H522 lung
RXF 393 renal = test system: RXF 393 renal
MDA-N = test system: MDA-N
786-0 renal = test system: 786-0 renal
SN12C renal = test system: SN12C renal
OVCAR-3 ovarian = test system: OVCAR-3 ovarian
HCC-2998 colon = test system: HCC-2998 colon
IGROV1 ovarian = test system: IGROV1 ovarian
HCT-116 colon = test system: HCT-116 colon
SK-MEL-28 melanoma = test system: SK-MEL-28 melanoma
A549 NSCLC = test system: A549 NSCLC
MDA-MB-435 = test system: MDA-MB-435
HCT-15 colon = test system: HCT-15 colon
OVCAR-8 ovarian = test system: OVCAR-8 ovarian
KM12 colon = test system: KM12 colon
DU-145 prostate = test system: DU-145 prostate
NCI/ADR-RES ovarian = test system: NCI/ADR-RES ovarian
LOX IMVI melanoma = test system: LOX IMVI melanoma
SNB-19 CNS = test system: SNB-19 CNS
U251 CNS = test system: U251 CNS
ACHN renal = test system: ACHN renal
BT-549 breast = test system: BT-549 breast
UACC-62 melanoma = test system: UACC-62 melanoma
SW-620 colon = test system: SW-620 colon
MDA-MB-231 breast = test system: MDA-MB-231 breast
HOP-62 NSCLC = test system: HOP-62 NSCLC
SF-295 CNS = test system: SF-295 CNS
SK-MEL-5 melanoma = test system: SK-MEL-5 melanoma
NCI-H23 lung = test system: NCI-H23 lung
UACC-257 melanoma = test system: UACC-257 melanoma
CCRF-CEM leukemia = test system: CCRF-CEM leukemia
SNB-75 CNS = test system: SNB-75 CNS
SK-MEL-2 melanoma = test system: SK-MEL-2 melanoma
K-562 leukemia = test system: K-562 leukemia
COLO 205 colon = test system: COLO 205 colon
SF-268 CNS = test system: SF-268 CNS
RPMI-8226 leukemia = test system: RPMI-8226 leukemia
HL-60(TB) leukemia = test system: HL-60(TB) leukemia
OVCAR-5 ovarian = test system: OVCAR-5 ovarian
HT29 colon = test system: HT29 colon
NCI-H460 lung = test system: NCI-H460 lung
PC-3 prostate = test system: PC-3 prostate
EKVX NSCLC = test system: EKVX NSCLC
TK-10 renal = test system: TK-10 renal
MCF7 breast = test system: MCF7 breast
HS 578T breast = test system: HS 578T breast
MALME-3M melanoma = test system: MALME-3M melanoma
SR leukemia = test system: SR leukemia
UO-31 renal = test system: UO-31 renal
M14 melanoma = test system: M14 melanoma
A498 renal = test system: A498 renal
SK-OV-3 ovarian = test system: SK-OV-3 ovarian
T-47D breast = test system: T-47D breast
OVCAR-4 ovarian = test system: OVCAR-4 ovarian
CAKI-1 renal = test system: CAKI-1 renal

Measured: TGI

CN(C)c1ccc(C(N)=O)cn1
not listed: M14 melanoma | A498 renal | SK-OV-3 ovarian | T-47D breast | OVCAR-4 ovarian | CAKI-1 renal
> 100 µM: all other assays above

COC(=O)c1cc(-c2c[nH]cc2C(=O)OCc2ccccc2)cn1S(=O)(=O)c1ccc(C)cc1
not listed: SK-MEL-28 melanoma | MDA-MB-435 | U251 CNS | SW-620 colon | RPMI-8226 leukemia | HL-60(TB) leukemia
> 100 µM: all other assays above
